From patent publication US12648904B2, “Porous nanocomposite medical implant device” (Lynthera Corporation, priority 2020, dated 2026)

Assay: Fatty acid loading into contact lenses, by weighing the dry lens before and after soaking
Type: physicochemical
Settings: for Fatty acid loading / Fatty acid by weight of the dried lens: ACUVUE TruEye lens; for Fatty acid loading: soaking concentration 20 mg/mL fatty acid in ethanol; for Fatty acid by weight of the dried lens: 7.5 mg/mL fatty acid in ethanol, 24 hours at 23° C.
Procedure: Two commercial silicone hydrogel contact lenses were tested: ACUVUE TruEye® (46% Water+54% Narafilcon A) and ACUVUE Oasys® (38% Water+62% Senofilcon A). TruEye® is a daily disposable contact lens while Oasys® is an approved contact lens for extended wear. The lenses were rinsed with deionized water and then air-dried before being soaked in 4 mL of 19 mg/mL, 27 mg/mL or 40 mg/mL of oleic acid in ethanol. The soaking duration was 24 hours at room temperature. Following the loading step, the contact lenses were taken out and excess fatty acid-ethanol solution was blotted out from the lens surface. Lenses were washed in deionized water for 1 hour and subsequently air-dried overnight.
The loading amount of OA was determined by weighing the dry lens before and after the fatty acid loading period as shown in FIG. 4. Oleic acid loading has a linear dependency on the concentration of the loading solutions. Furthermore, Oasys® has higher affinity for oleic acid than TruEye® at concentrations between […] and 27 mg/mL. For higher concentrations, the affinity for oleic acid is equivalent for both contact lenses. Therefore, the loading of Oleic acid into lens can be adjusted by this correlation.
1-day ACUVUE Moist® (58% Water+42% Etafi Icon A) are conventional hydrogel commercial lenses that are mostly composed of poly-2-hydroxyethyl methacrylate (pHEMA). Lenses were rinsed with PBS and then air-dried before use. Dry lenses were soaked in 4 mL of 100 mg/mL of oleic acid in a mixture of ethanol and deionized water (75/25 ethanol/water). […] Following the loading step, the contact lenses were taken out and excess fatty acid-ethanol solution was blotted out from the lens surface. Lenses were washed in PBS for 1 hour and then were air-dried overnight. The loading amount of OA was determined by weighing the dry lens before and after the fatty acid loading period.
ACUVUE TruEye® (diopter −3.5) contact lenses were rinsed with deionized. water and then air-dried overnight before use. One batch of contact lenses were soaked in 4 mL of 7.5 mg,/mL of myristic acid in ethanol. Another batch of contact lens were soaked in 4 mL of 7.5 mg/mL of stearic acid in ethanol. A third batch of lenses was used as a control (no fatty acid loading). The soaking duration was 24 hours at 23° C. Following the loading step, the contact lenses were taken out and excess fatty acid-ethanol solution was blotted out from the lens surface. Lenses were washed in deionized water for 1 hour and subsequently air-dried overnight. All contact lenses were optically transparent in the hydrated state. The wt % of fatty add retain by the contact lens was determined by recording the increase in the weight of the dried lens after the soaking and drying procedure. For both stearic and myristic acid, approximately 1.5% ±0.5% by weight of the dried lens was composed of the fatty acid.

| Structure (SMILES) | Fatty acid loading | Fatty acid by weight of the dried lens | Maximum oleic acid loading (1-day ACUVUE Moist lens, 100 to 500 mg/mL oleic acid in 75/25 ethanol/water) |
| --- | --- | --- | --- |
| CCCCC/C=C\C/C=C\CCCCCCCC(=O)O [linoleic acid] | 6.2 wt % |  |  |
| CCCCCCCCCCCCCC(=O)O [myristic acid, Myristic Acid (Tetradecanoic Acid)] |  | approximately 1.5% |  |
| CCCCCCCC/C=C\CCCCCCCC(=O)O [oleic acid] | 6.1 wt % |  | 2.9 wt. % |
| CCCCCCCCCCCCCCCCCC(=O)O [stearic acid, Stearic Acid (Octadecanoic Acid)] |  | approximately 1.5% |  |
| CC/C=C\C/C=C\C/C=C\CCCCCCCC(=O)O [α-linolenic acid] | 6.0 wt % |  |  |
